These results are taken from US20030165853A1, “Antisense imaging of gene expression of the brain in vivo” (The Regents of the University of California Office of …, priority 2000, published 2003).

For data set [1] the following is noted: rat, in vivo, iv. As to the method: Either the unconjugated anti-luciferase PNA or the anti-luciferase PNA conjugated to OX26/SA was injected intravenously into ketamine/xylazine anesthetized adult male Sprague-Dawley rats (270-300 g) by using methods described previously (10). The dose of radioactivity in these experiments was 5 μCi/rat of PNA (0.02 nmol) conjugated to 20 μg/rat of OX26/SA (0.1 nmol).

The next data set relates to C6-790 cells. The experiment in a line: Uptake of [125I]PNA tracers in cultured C6-790 cells. Format: cell-based, rat. Conditions: 2-24 h incubation, TCA-precipitable cellular fraction. The protocol:
(§1) The uptake of ^125I-labeled antirev or antiluciferase PNA was investigated in C6-790 and C6 cells in the presence or absence of OX26/SA. Cells were grown in 24 well dishes and incubated with 5 μCi/ml (12 nM) [^125I]PNA with and without OX26/SA (1:1 molar ratio) for 2, 4, 6, or 24 h. The monolayers were then washed 3 times in 2.5 ml cold PBS (10 mM phosphate buffer, pH 7.2/150 mM NaCl) and lysed with 250 μl reporter lysis buffer (Promega), as previously described (Boado and Pardridge (1998) Mol. Brain Res. 59: 109-113). Aliquots of samples (100 μl) and standards (10 μl) were precipitated with TCA, and the percent of medium PNA that was taken up into the TCA-precipitable cellular fraction was measured and expressed either as nanograms PNA per milligram protein or percentage uptake per milligram protein. Twenty-microliter lysate aliquots were also resolved by SDS in a 12% gel. Gels were fixed in 50% MeOH and 10% acetic acid solution for 30 min, incubated in 7% MeOH, 7% acetic acid and 1% glycerol for 5 min, and dried before autoradiography with Kodak BioMax film and intensifying screens. For the pulse-chase study, either control C6 or C6-790 cells were incubated as described above with 10 μCi/ml (24 nM) [^125I]antiluciferase PNA conjugated to OX26SA for 24 h. […] TCA-precipitable cellular radioactivity was then measured at 0, 2, 6, or 24 h of incubation.

Another data set concerns C6 experimental tumors. Description: Film autoradiography in rats bearing control C6 tumors not transfected with the luciferase transgene. Format: in vivo, rat. As to conditions: 100 μCi i.v., brain removed at 2 h. The protocol:
The C6-790 cells were implanted in the caudate-putamen nucleus of male CD Fischer 344 rats (Harlan Breeders, Indianapolis, Ind.), weighing 250-275 g under stereotaxic guidance, as described previously (Kurihara et al. (1999) Bioconjugate Chem. 10: 502-511). The animals were examined 14 days later. To confirm expression of the luciferase transgene in the tumor in vivo, tumor extracts were prepared in Promega lysis buffer, and luciferase enzyme activity was measured with luciferin as substrate (Promega) by using a Berthold (Nashua, N.H.) luminometer, as described previously (Boado and Pardridge (1998) Mol. Brain Res. 59: 109-113). A luciferase standard curve was also assayed, and the enzyme activity was expressed as picograms of luciferase equivalent per milligram of tissue protein. The C6-790 cells were grown in tissue culture as described previously (Id.), and these cells were also extracted in Promega lysis buffer for measurement of luciferase activity in the cells grown in tissue culture before implantation in brain. Control experiments were performed with C6 cells described previously (13), and these cells were used to develop brain tumors exactly as described above, except these tumor cells were not transfected with the luciferase transgene.
The brain scans and autopsy stains for three different groups of adult Fischer rats bearing the C6-790 gliomas are shown in FIG. 5. […]

A further data set relates to HD mRNA. The experiment in a line: HD RNase protection assay. As to conditions: RNase T1/A digestion, PAGE autoradiography. Type of data set: binding, human. The protocol:
The sense RNA was synthesized with T3 RNA polymerase following linearization of the plasmid with EcoRI. The transcribed RNA was radiolabeled with [^32Pα]ATP to a specific activity of 0.22 μCi/pmol, as previously described (Boado and Pardridge (1994) Bioconj. Chem., 6: 406-410). For the RNAse protection assay, 0.6 pmol of biotinylated HD-PNA or biotinylated luciferase-PNA, with or without conjugation to 6.4 pmol of MAb-SA, was added to 10^5 CPM of [^32P]-labeled sense HD RNA (0.2 pmol) in 3 μl buffer (80 mM NaCl, 7 mM phosphate buffer, pH=7.5, 0.1% BSA), and annealed for 30 minutes at 42° C. Then 20 units RNAse Ti and 2.5 μg RNAse A were added to the samples in 17 μl of RNAse digestion buffer (0.3 M NaCl, 10 mM TRIS pH=7.5, 4 mM EDTA, 0.02% tRNA, 0.02% BSA) and incubated for 30 min at 37° C. RNA fragments were analyzed by 7 M urea/20% polyacrylamide gel electrophoresis following by autoradiography as described by Pardridge et al. (1995) Proc. Natl. Acad. Sci., USA, 92:5592-5596. Labeled RNA and PNAs were heat denatured for 2 minutes at 95° C. and then incubated on ice for 2 minutes immediately before the experiment or conjugation to MAb-SA.

Data set [2] relates to luciferase mRNA. Description: Luciferase RNase protection assay. Type of data set: binding, firefly. As to conditions: RNase A/T1 protection. As to the method:
These methods were identical to those described previously (Pardridge et al. (1995) Proc. Natl. Acad. Sci., USA, 92: 5592-5596). The luciferase RNA was prepared with a luciferase transcription plasmid, designated clone 760, which has been described previously (Tsukamoto et al. (1997) J. Neurochem. 68: 2587-2592). The sense RNA was synthesized with T7 RNA polymerase after linearization of the plasmid with EcoRI. The transcribed RNA was radiolabeled with [^32Pα]ATP, and the correct size of the radiolabeled transcribed sense RNA was determined by agarose/formaldehyde gel electrophoresis followed by film autoradiography. For the RNase protection assay, 0.5 pmol of biotinylated luciferase PNA with or without conjugation to 10 pmol of OX26/SA was added to 10 5 cpm of ^32P-labeled sense luciferase RNA (8 fmol) in 3 μl buffer (50 mM NaCl/5 mM Tris, pH 8/0.5 mM EDTA) and annealed for 30 min at 56° C. Then 15 units of RNase T1 and 0.4 units of RNase A were added to samples in […] of RNase digestion buffer m (Ambion, Austin, Tex.). RNA fragments were analyzed by 7 M urea/20% PAGE and autoradiography, as described previously (Pardridge et al. (1995) Proc. Natl. Acad. Sci., USA, 92: 5592-5596). Labeled RNA and PNA were heat denatured for 2 min at 95° C. and then incubated on ice for 2 min immediately before the experiment or conjugation to OX26/SA.

Data set [3] concerns luciferase mRNA. Description: Film autoradiography in rats bearing C6-790 brain tumors. Type of data set: in vivo, rat. As to conditions: 100 μCi i.v., brain removed at 2 h, C6-790 gliomas in Fischer rats.
Protocol: Fourteen days after implantation of C6-790 cells, the rats were anesthetized with ketamine and xylazine for i.v. injection of brain imaging agents, as described previously (Kurihara et al. (1999) Bioconjugate Chem. 10: 502-511). […] In these studies, each rat received 0.2 nmol of PNA and 40 μg (0.2 nmol) of OX26/SA. Each rat was also administered 20 mg of L-tyrosine and 2 mg of sodium iodide i.p. 15 min before the study to block brain uptake of radiolabeled metabolites such as [^125I]tyrosine or iodide. […]
In the next data set the test system is C6 cells. Description: Uptake of [125I]PNA tracers in cultured C6 cells. Format: cell-based, rat. Conditions: 2-24 h incubation, TCA-precipitable cellular fraction. The protocol:
as §1

In data set [4] the target is rat transferrin receptor (rat) (UniProt Q99376). Description: cell-based or functional assay.
rat transferrin receptor (rat), sequence (Q99376 whole entry): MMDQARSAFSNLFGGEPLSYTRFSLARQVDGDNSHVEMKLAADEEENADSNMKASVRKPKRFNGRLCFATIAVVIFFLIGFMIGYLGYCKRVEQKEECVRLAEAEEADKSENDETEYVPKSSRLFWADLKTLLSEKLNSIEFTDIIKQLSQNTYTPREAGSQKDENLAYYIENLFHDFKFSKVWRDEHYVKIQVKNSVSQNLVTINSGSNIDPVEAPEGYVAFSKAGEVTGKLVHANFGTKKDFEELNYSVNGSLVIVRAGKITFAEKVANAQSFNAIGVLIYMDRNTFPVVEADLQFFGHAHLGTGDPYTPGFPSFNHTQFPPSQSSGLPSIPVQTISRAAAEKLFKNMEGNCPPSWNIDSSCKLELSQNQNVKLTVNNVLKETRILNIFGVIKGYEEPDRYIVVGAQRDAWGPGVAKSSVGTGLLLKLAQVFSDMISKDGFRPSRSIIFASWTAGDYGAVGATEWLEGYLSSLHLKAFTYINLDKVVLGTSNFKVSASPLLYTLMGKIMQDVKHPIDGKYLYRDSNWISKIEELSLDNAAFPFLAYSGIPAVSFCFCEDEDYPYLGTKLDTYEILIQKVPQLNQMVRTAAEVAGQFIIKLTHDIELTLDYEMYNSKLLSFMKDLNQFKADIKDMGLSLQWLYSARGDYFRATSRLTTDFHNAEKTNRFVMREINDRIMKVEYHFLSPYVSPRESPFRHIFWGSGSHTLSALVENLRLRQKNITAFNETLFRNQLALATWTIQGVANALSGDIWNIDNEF

Regarding “antiluciferase PNA: biotinylated 16-mer peptide nucleic acid antisense to luciferase mRNA (CTTCCATTTTACCAAC), linkers, Tyr-Lys, amidated carboxy terminus; radioiodinated (all peptide nucleic acid (PNA); biotinylated, linkers, Tyr-Lys, amidated carboxy terminus, radioiodinated)”, the plasma clearance in data set [1] turned out to be 7.2 ± 0.4 mL/min/kg. For the same substance, the “uptake by C6-790 cells” value with C6-790 cells is “negligible”. The “radioactivity in control C6 tumors” value in the data set with C6 experimental tumors is “no measurable radioactivity was detectable”. Besides, the “hybridization to HD mRNA (RNase protected fragment)” value in the data set with HD mRNA is “did not protect the RNA from nuclease digestion”. The “hybridization to luciferase sense RNA (protection of 16 mer RNA fragments)” value in the data set on luciferase mRNA [2] was “hybridized to the luciferase sense RNA”. Also, the “imaging of luciferase gene expression in brain tumor” value in the data set with luciferase mRNA [3] is on record as “no imaging of either normal brain or brain tumor”. Further, the “uptake by C6 cells” value with C6 cells is listed as “negligible”.

For “antirev PNA: control PNA antisense to the rev gene of HIV, sequence CTCCGCTTCTTCCTGCCA (all peptide nucleic acid (PNA); 125I-radiolabelled, conjugated to streptavidin-OX26 antibody, attachment not given here, further chemistry not fully specified) [reference compound]”, in the data set with C6-790 cells, the “uptake by C6-790 cells” value is “negligible”. Moreover, the “uptake by C6 cells” value with C6 cells is “negligible”.

Regarding “conjugate of the OX26 mAb (mouse monoclonal antibody to the rat transferrin receptor) and recombinant streptavidin (from UniProt P22629 37-163)”, the uptake of [125I]PNA conjugate by cells after 24 h of incubation (ng PNA per milligram of protein) in data set [4] came to 10.
